# Test results as given in patent publication US10875857B2, “1-amino-triazolo(1,5-A)pyridine-substituted urea derivative and uses thereof” (Kala Pharmaceuticals, Inc., priority 2014, dated 2020).
# Legend:
# VEGFR2 = biological target: T1, VEGFR2 (Homo sapiens, UniProt P35968); assay: Cellular VEGFR2 tyrosine auto-phosphorylation assay in HUE cells after VEGF-A stimulation (sandwich ELISA); assay type: cell-based; details: 90 min incubation with compound, then 3 min stimulation with 100 ng/ml VEGF-A, phosphorylated VEGFR2 by ELISA, read-out: cellular 1050 values, VEGFR2
# T1 construct: The human umbilical endothelial (HUE) cell line expresses high levels of VEGFR2; endogenous in cells; host or cells: HUE (human umbilical endothelial) cell line
# T1 sequence (P35968 20-1356): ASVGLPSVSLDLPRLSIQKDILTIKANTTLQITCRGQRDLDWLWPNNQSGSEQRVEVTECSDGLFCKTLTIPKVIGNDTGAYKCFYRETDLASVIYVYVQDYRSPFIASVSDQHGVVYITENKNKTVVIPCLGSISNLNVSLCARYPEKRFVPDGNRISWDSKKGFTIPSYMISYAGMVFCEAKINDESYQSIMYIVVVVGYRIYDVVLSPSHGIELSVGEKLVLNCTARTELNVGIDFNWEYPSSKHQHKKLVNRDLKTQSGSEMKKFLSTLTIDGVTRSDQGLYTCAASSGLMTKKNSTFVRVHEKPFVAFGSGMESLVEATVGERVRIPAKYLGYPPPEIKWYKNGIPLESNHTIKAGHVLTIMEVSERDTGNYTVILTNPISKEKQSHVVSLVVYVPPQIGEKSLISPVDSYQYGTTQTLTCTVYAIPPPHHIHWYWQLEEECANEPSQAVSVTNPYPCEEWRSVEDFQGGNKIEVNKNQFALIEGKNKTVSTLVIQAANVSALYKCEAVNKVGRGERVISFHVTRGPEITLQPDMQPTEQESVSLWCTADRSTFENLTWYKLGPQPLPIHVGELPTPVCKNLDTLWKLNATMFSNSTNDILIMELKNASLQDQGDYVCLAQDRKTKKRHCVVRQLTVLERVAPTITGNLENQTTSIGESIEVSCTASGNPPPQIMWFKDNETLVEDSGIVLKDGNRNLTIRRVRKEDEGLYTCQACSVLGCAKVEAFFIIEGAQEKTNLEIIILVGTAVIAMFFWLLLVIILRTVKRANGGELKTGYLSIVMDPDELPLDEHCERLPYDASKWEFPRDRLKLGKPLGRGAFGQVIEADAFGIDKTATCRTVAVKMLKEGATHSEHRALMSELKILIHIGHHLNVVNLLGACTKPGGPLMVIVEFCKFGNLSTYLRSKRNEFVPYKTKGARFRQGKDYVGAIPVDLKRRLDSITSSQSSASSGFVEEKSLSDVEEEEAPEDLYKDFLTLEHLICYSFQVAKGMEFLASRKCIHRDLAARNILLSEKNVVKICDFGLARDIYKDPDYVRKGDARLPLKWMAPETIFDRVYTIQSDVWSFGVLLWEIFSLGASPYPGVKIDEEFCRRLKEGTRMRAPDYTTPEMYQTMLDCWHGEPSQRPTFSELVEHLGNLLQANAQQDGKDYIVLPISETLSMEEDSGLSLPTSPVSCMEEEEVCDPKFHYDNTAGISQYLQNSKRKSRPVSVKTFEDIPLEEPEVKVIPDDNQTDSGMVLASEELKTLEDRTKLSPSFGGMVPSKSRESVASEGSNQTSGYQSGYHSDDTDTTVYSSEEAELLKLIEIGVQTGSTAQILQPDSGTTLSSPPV
# Method: The human umbilical endothelial (HUE) cell line expresses high levels of VEGFR2. The compound prepared in Example 2 above, 1-(4-(3-amino-[1,2,3]triazolo[1,5-a]pyridin-4-yl)phenyl)-3-(3-chlorophenyl)urea, was tested for the ability to inhibit tyrosine auto-phosphorylation of this receptor after stimulation with vascular endothelial growth factor A (VEGF-A). HUE cells were plated into multi-well cell culture plates in endothelial cell growth medium (ECGM) supplemented with 10% fetal calf serum (FCS). After starvation in endothelial cell basal medium (ECBM) supplemented with […] overnight cells were incubated with compounds in serum-free ECBM. […] Cells were incubated for 90 min at 37° C. in ECBM with the serial diluted compound and then stimulated for 3 min with 100 ng/ml VEGF-A. Cells were lysed, and then levels of phosphorylated VEGFR2 were determined in a sandwich ELISA assay formatted in a multi-well plate using a VEGFR2 specific capture antibody and an anti-phosphotyrosine VEGFR2 detection antibody. […] IC50 values were determined by fitting the converted eight point dose response data to a four-parameter logistic equation using GRAPHPAD PRISM® 5.01 software.
# PDGFR-β = biological target: T2, PDGFR-β (Mus musculus, UniProt P05622); assay: Cellular PDGFR-β tyrosine auto-phosphorylation assay in NIH3T3 cells after PDGF-BB stimulation (sandwich ELISA); assay type: cell-based, murine; details: 90 min incubation with compound, then 3 min stimulation with 100 ng/ml PDGF-BB, phosphorylated PDGFR-β by ELISA, read-out: cellular 1050 values, PDGFR-β
# T2 construct: The murine embryonal fibroblast cell line NIH3T3 expresses endogenously high levels of PDGFR-β; endogenous in cells; host or cells: NIH3T3 murine embryonal fibroblast cell line
# T2 sequence (P05622 32-1098): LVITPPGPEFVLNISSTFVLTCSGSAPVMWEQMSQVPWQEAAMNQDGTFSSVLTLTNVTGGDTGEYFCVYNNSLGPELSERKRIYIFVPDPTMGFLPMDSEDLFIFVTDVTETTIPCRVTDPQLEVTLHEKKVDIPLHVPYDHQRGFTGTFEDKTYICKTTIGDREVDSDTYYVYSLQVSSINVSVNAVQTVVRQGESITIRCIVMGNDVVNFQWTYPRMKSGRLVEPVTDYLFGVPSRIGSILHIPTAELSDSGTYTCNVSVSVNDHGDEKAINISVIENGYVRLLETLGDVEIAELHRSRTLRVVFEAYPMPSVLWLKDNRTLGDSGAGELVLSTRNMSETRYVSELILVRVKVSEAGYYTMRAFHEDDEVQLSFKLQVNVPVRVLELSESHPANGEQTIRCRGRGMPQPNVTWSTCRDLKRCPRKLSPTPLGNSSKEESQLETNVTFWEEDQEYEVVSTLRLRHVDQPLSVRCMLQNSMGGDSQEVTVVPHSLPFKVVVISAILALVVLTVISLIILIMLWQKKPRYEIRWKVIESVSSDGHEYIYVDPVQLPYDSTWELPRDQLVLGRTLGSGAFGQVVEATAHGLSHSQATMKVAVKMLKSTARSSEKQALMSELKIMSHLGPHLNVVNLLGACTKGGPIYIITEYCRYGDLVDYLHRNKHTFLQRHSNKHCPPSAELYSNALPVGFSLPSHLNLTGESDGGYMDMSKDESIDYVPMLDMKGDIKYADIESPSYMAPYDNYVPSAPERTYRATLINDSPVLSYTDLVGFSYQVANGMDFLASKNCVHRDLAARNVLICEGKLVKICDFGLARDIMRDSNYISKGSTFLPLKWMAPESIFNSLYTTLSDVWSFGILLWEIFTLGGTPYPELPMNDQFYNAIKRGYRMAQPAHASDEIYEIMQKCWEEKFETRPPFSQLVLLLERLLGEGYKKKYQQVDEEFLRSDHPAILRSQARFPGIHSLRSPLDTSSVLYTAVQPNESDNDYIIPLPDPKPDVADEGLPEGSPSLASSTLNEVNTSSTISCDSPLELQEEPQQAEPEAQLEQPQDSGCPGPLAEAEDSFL
# Method: The murine embryonal fibroblast cell line NIH3T3 expresses endogenously high levels of PDGFR-β. The compound prepared in Example 2 above was tested for the ability to inhibit tyrosine auto-phosphorylation of this receptor after stimulation with platelet-derived growth factor BB (PDGF-BB). The NIH3T3 cells were plated into multi-well cell culture plates in Dulbecco's Modified Eagle Medium (DMEM) supplemented with 10% FCS. The medium was removed and then replaced with DMEM without FCS and cells serum starved overnight at 37° C. On the day of the assay the compound was 1:3 serial diluted from 10 mM stocks in 100% DMSO and then were 1:100 diluted to each well of cells in DMEM without FCS to create final solutions containing 1% DMSO and an eight point compound dose response curve starting at 10^−6 M, 10^−7 M, or 10^−8 M. The compound was added in duplicate to columns of the multi-well plate. […] Cells were lysed, and then levels of phosphorylated PDGFR-β were determined in a sandwich ELISA assay formatted in a multi-well plate using a PDGFR-β specific capture antibody and an anti-phosphotyrosine PDGFR-β detection antibody. […] IC50 values were determined by fitting the converted eight point dose response data to a four-parameter logistic equation using GRAPHPAD PRISM® 5.01 software.
compound,measurement,setting,value
"Nc1nnn2cccc(-c3ccc(NC(=O)Nc4cccc(Cl)c4)cc3)c12 [compound of Formula (I), 1-(4-(3-amino-[1,2,3]triazolo[1,5-a]pyridin-4-yl)phenyl)-3-(3-chlorophenyl)urea]",IC50,VEGFR2,0.37 nM
same,IC50,PDGFR-β,3.2 nM
